# Reference: patent US5229381A, “Substituted azetidinones as anti-inflammatory and antidegenerative agents” (Merck & Co., Inc., priority 1991, dated 1993)
# Target: T1, human polymorphonuclear leukocyte elastase (Homo sapiens, UniProt P08246)
# T1 construct: Crude extract of human polymorphonuclear leukocytes (PMN) containing elastase activity; endogenous in cells; host or cells: human polymorphonuclear leukocytes (crude extract)
# T1 sequence (P08246 30-247 limits assumed): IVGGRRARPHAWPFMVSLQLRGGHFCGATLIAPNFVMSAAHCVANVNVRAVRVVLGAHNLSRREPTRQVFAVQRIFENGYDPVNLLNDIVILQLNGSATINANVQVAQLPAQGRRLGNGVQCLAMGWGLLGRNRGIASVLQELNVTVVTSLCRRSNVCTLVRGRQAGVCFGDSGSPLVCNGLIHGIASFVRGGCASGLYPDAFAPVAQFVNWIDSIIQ
# Experiment: Inhibition of human polymorphonuclear leukocyte (granulocyte) elastase via hydrolysis of Boc-AAPAN or Boc-AAPVN
# Type: biochemical
# Settings: pH 7.5, Table VI, (per mole per second); read-out: kobs/I, second order rate constant of inactivation of the enzyme
row,kinact/KI [M⁻¹ s⁻¹],SMILES
1,389000,"CCC[C@@H](NC(=O)N1C(=O)C(CC)(CC)[C@@H]1Oc1ccc(C(=O)O)cc1)c1ccc(C)cc1 [Table VI: 4-COOH; nPr; 4-Me, (4S)-3,3-diethyl-1-[(R)-α-n-propyl-(4-methyl)-benzylaminocarbonyl]-4-[(4-carboxy)phenoxy]azetidin-2-one]"
2,848000,"CCC[C@@H](NC(=O)N1C(=O)C(CC)(CC)[C@@H]1Oc1ccc(CC(=O)O)cc1)c1ccc2occc2c1 [Table VI: 4-Ch2(OOH); nPr; 3,4(-CHCHO), (4S)-3,3-Diethyl-1-[[(R)-1-(benzofuran-5-yl)butylamino]carbonyl]-4-[4-(carboxymethyl)phenoxy]azetidin-2-one]"
